What was measured:
[1] = tested on: STEME; experiment: A. Herbicidal pre-emergence action on harmful plants (Tables A); type: in vivo, Stellaria media; settings: visual grading after ca. 3 weeks vs untreated controls, 100% = plants have died off, 0% = as control plants
From the text: (§1) Seeds of mono- and dicotyledonous weed plants were sown in plastic pots (double sowings with one species of mono- and one species of dicotyledonous weed plants per pot), in sandy loam, and covered with soil. The compounds according to the invention, formulated in the form of wettable powders (WP) or as emulsifiable concentrates (EC), were applied to the surface of the covering soil as aqueous suspension or emulsion, with the addition of 0.5% of an additive, at an application rate of 6001 of water per hectare (converted). Following treatment, the pots were placed in a greenhouse and kept under optimum growth conditions for the test plants. The visual grading of the damage to the test plants was carried out after ca. 3 weeks in comparison to untreated controls (herbicidal effect in percent (%): 100% effect = plants have died off, 0% effect = as control plants). Tables A1 to A12, below, show the effects of selected compounds of the general formula (I) according to table 1 on various harmful plants and an application rate corresponding to 1280 g/ha or below obtained by the experimental procedure mentioned above. Table A1: pre-emergence activity at 1280g/ha against ABUTH in %

[2] = tested on: ECHCG; experiment: as above; type: in vivo, Echinochloa crus-galli; settings: visual grading after ca. 3 weeks vs untreated controls, 100% = plants have died off, 0% = as control plants
From the text: as §1

[3] = tested on: AMARE; experiment: B. Herbicidal post-emergence action on harmful plants (Tables B); type: in vivo, Amaranthus retroflexus; settings: application rate 1280 g/ha; Table B8
Experimental: (§2) Seeds of mono- and dicotyledonous weed plants were placed in plastic pots in sandy loam soil (doubly sown with in each case one species of mono- or dicotyledonous weed plants per pot), covered with soil and cultivated in a greenhouse under controlled growth conditions. 2 to 3 weeks after sowing, the test plants were treated at the one-leaf stage. The compounds of the invention, formulated in the form of wettable powders (WP) or as emulsion concentrates (EC), were applied onto the green parts of the plants as aqueous suspension or emulsion with addition of 0.5% additive at a water application rate of 600 liters per hectare (converted). After the test plants had been kept in the greenhouse under optimum growth conditions for about 3 weeks, the activity of the preparations was rated visually in comparison to untreated controls. For example, 100% activity = the plants have died, 0% activity = like control plants. Tables B1 to B12, below, show the effects of selected compounds of the general formula (I) according to table 1 on various harmful plants and an application rate corresponding to 1280 g/ha or below obtained by the experimental procedure mentioned above. Table B1a: post-emergence activity at 1280g/ha against ABUTH in %

[4] = tested on: LOLRI; experiment: A. Herbicidal pre-emergence action on harmful plants (Tables A); type: in vivo, Lolium rigidum; settings: visual grading after ca. 3 weeks vs untreated controls, 100% = plants have died off, 0% = as control plants
From the text: as §1

[5] = tested on: MATIN; experiment: as above; type: in vivo, Matricaria inodora; settings: visual grading after ca. 3 weeks vs untreated controls, 100% = plants have died off, 0% = as control plants
From the text: as §1

[6] = tested on: DIGSA; experiment: as above; type: in vivo, Digitaria sanguinalis
From the text: as §1

[7] = tested on: SETVI; experiment: as above; type: in vivo, Setaria viridis; settings: visual grading after ca. 3 weeks vs untreated controls, 100% = plants have died off, 0% = as control plants
From the text: as §1

[8] = tested on: POAAN; experiment: as above; type: in vivo, Poa annua
From the text: as §1

[9] = tested on: ALOMY; experiment: as above; type: in vivo, Alopecurus myosuroides; settings: application rate 1280 g/ha; Table A9a
From the text: as §1

[10] = tested on: ECHCG; experiment: B. Herbicidal post-emergence action on harmful plants (Tables B); type: in vivo, Echinochloa crus-galli; settings: application rate 1280 g/ha; Table B2a
Experimental: as §2

[11] = tested on: DIGSA; experiment: as above; type: in vivo, Digitaria sanguinalis; settings: application rate 1280 g/ha; Table B12a
Experimental: as §2

[12] = tested on: VERPE; experiment: as above; type: in vivo, Veronica persica; settings: application rate 1280 g/ha; Table B11a
Experimental: as §2

[13] = tested on: STEME; experiment: as above; type: in vivo, Stellaria media; settings: application rate 1280 g/ha; Table B6
Experimental: as §2

[14] = tested on: POAAN; experiment: as above; type: in vivo, Poa annua; settings: application rate 1280 g/ha; Table B7a
Experimental: as §2

[15] = tested on: ABUTH; experiment: as above; type: in vivo, Abutilon theophrasti; settings: application rate 1280 g/ha; Table B1a
Experimental: as §2

[16] = application rate 320 g/ha, Table A12b
[17] = application rate 1280 g/ha, Table A12a
[18] = application rate 320 g/ha, Table A7b
[19] = application rate 1280 g/ha, visual grading after ca. 3 weeks vs untreated controls, 100% = plants have died off, 0% = as control plants
[20] = application rate 80 g/ha, Table A7c

SMILES: CCOCc1nn(C)cc1C(=O)N1CCC1Cc1c(F)cccc1Cl (racemic) [Example I-110]
- pre-emergence activity against STEME ([1]; application rate 1280 g/ha): 90%
- pre-emergence activity against ECHCG ([2]; application rate 320 g/ha): 90%
- pre-emergence activity against ECHCG ([2]; application rate 1280 g/ha): 100%
- post-emergence activity against AMARE [3]: 100%
- pre-emergence activity against LOLRI ([4]; application rate 320 g/ha): 90%
- pre-emergence activity against LOLRI ([4]; application rate 1280 g/ha): 100%
- pre-emergence activity against MATIN ([5]; application rate 1280 g/ha): 90%
- pre-emergence activity against DIGSA [6, 16]: 90%
- pre-emergence activity against DIGSA [6, 17]: 90%
- pre-emergence activity against SETVI ([7]; application rate 1280 g/ha): 100%
- pre-emergence activity against POAAN [8, 18]: 90%
- pre-emergence activity against POAAN [8, 19]: 100%

SMILES: C=CCn1cc(C(=O)N2CCCC2Cc2ccccc2F)c(COC)n1 (racemic) [Example I-039]
- pre-emergence activity against ALOMY [9]: 90%
- post-emergence activity against ECHCG [10]: 90%
- pre-emergence activity against STEME ([1]; application rate 1280 g/ha): 90%
- pre-emergence activity against ECHCG ([2]; application rate 1280 g/ha): 90%
- pre-emergence activity against LOLRI ([4]; application rate 320 g/ha): 90%
- pre-emergence activity against LOLRI ([4]; application rate 1280 g/ha): 90%
- pre-emergence activity against MATIN ([5]; application rate 1280 g/ha): 90%
- pre-emergence activity against DIGSA [6, 16]: 90%
- pre-emergence activity against DIGSA [6, 17]: 90%
- pre-emergence activity against SETVI ([7]; application rate 320 g/ha): 90%
- pre-emergence activity against SETVI ([7]; application rate 1280 g/ha): 90%
- pre-emergence activity against POAAN [8, 20]: 90%
- pre-emergence activity against POAAN [8, 18]: 100%
- pre-emergence activity against POAAN [8, 19]: 100%
- post-emergence activity against DIGSA [11]: 90%

SMILES: Cn1cc(C(=O)N2CCC2Cc2c(F)cccc2Cl)c(COCC(F)F)n1 (racemic) [Example I-107]
- pre-emergence activity against STEME ([1]; application rate 1280 g/ha): 90%
- pre-emergence activity against ECHCG ([2]; application rate 320 g/ha): 90%
- pre-emergence activity against ECHCG ([2]; application rate 1280 g/ha): 100%
- post-emergence activity against AMARE [3]: 90%
- pre-emergence activity against LOLRI ([4]; application rate 1280 g/ha): 90%
- pre-emergence activity against MATIN ([5]; application rate 1280 g/ha): 100%
- post-emergence activity against VERPE [12]: 90%
- pre-emergence activity against DIGSA [6, 16]: 90%
- pre-emergence activity against DIGSA [6, 17]: 100%
- post-emergence activity against STEME [13]: 90%
- pre-emergence activity against SETVI ([7]; application rate 1280 g/ha): 100%
- pre-emergence activity against POAAN [8, 18]: 100%
- pre-emergence activity against POAAN [8, 19]: 100%

SMILES: C=CCOCc1c(C(=O)N2CCCC2Cc2ccccc2F)cnn1C (single isomer, unassigned) [Example I-144]
- pre-emergence activity against STEME ([1]; application rate 1280 g/ha): 90%
- pre-emergence activity against ECHCG ([2]; application rate 320 g/ha): 90%
- pre-emergence activity against ECHCG ([2]; application rate 1280 g/ha): 100%
- post-emergence activity against AMARE [3]: 90%
- pre-emergence activity against DIGSA [6, 17]: 90%
- pre-emergence activity against SETVI ([7]; application rate 1280 g/ha): 90%
- pre-emergence activity against POAAN [8, 20]: 100%
- pre-emergence activity against POAAN [8, 18]: 100%
- pre-emergence activity against POAAN [8, 19]: 100%

SMILES: COCc1nn(C)cc1C(=O)N1CCCC1Cc1ccccc1C (racemic) [Example I-078]
- post-emergence activity against POAAN [14]: 90%
- pre-emergence activity against ALOMY [9]: 90%
- post-emergence activity against ECHCG [10]: 90%
- pre-emergence activity against STEME ([1]; application rate 80 g/ha): 90%
- pre-emergence activity against STEME ([1]; application rate 320 g/ha): 90%
- pre-emergence activity against STEME ([1]; application rate 1280 g/ha): 90%
- pre-emergence activity against ECHCG ([2]; application rate 320 g/ha): 90%
- pre-emergence activity against ECHCG ([2]; application rate 1280 g/ha): 100%
- pre-emergence activity against LOLRI ([4]; application rate 320 g/ha): 100%
- pre-emergence activity against LOLRI ([4]; application rate 1280 g/ha): 100%
- pre-emergence activity against MATIN ([5]; application rate 320 g/ha): 90%
- pre-emergence activity against MATIN ([5]; application rate 1280 g/ha): 90%
- post-emergence activity against VERPE [12]: 90%
- pre-emergence activity against DIGSA [6, 16]: 90%
- pre-emergence activity against DIGSA [6, 17]: 90%
- pre-emergence activity against SETVI ([7]; application rate 320 g/ha): 90%
- pre-emergence activity against SETVI ([7]; application rate 1280 g/ha): 100%
- pre-emergence activity against POAAN [8, 18]: 100%
- pre-emergence activity against POAAN [8, 19]: 100%
- post-emergence activity against ABUTH [15]: 90%
